Experimental data from patent US10155948B2, “Pharmaceutical composition for preventing or treating diabetic complications and screening method for preventive or therapeutic agent for diabetic complications” (KANGWON NATIONAL UNIVERSITY UNIVERSITY-INDUSTRY COOPERATION …, priority 2016, dated 2018).

How the values were obtained:
TGase2 = biological target: T1, TGase2 (Homo sapiens, UniProt P21980); conditions: protein chip-based, dose-dependent
T1 sequence (P21980 1-687): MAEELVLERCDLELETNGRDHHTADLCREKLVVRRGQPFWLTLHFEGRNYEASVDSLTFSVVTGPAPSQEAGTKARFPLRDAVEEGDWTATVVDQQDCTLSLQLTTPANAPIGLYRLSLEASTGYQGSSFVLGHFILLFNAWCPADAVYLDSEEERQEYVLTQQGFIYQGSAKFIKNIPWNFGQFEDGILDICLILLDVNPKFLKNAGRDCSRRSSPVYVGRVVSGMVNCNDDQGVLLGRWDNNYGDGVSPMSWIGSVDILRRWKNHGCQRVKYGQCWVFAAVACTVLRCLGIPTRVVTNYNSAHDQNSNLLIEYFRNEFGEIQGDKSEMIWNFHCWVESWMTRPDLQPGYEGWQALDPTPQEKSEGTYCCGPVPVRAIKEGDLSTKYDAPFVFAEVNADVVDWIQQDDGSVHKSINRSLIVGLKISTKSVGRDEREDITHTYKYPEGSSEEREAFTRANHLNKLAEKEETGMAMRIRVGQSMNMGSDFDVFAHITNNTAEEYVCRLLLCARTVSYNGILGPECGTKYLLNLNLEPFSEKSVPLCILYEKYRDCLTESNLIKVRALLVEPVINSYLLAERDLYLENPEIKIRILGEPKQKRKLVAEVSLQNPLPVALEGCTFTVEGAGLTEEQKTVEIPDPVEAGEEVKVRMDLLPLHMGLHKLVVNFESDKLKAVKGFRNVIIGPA

VE-cadherin = test: Visualization of VE-cadherin (adherens junction disruption) in HRECs; format: cell-based, human; conditions: for VEGF-induced VE-cadherin disruption: summary statement, conditions not given; for VEGF-induced VE-cadherin breakdown: HRECs, 50 μM cystamine or 20 μM MDC 30 min, 10 ng/ml VEGF
Protocol: Actin filaments and VE-cadherin were visualized as previously described. For visualization of actin filaments, cells were treated with 10 ng/ml VEGF for 1 hr at 37° C., fixed with 3.7% formaldehyde, and permeabilized with 0.2% Triton X-100. […] For visualization of VE-cadherin, cells were preincubated with the TGase2 inhibitors for 30 min and treated with 10 ng/ml VEGF for 90 min at 37° C. Following fixation and permeabilization, cells were incubated overnight with a monoclonal anti-VE-cadherin antibody (1:200, Santa Cruz Biotechnology) at 4° C. Cells were then probed with an FITC-conjugated goat anti-mouse antibody (1:200, Sigma) and VE-cadherin was visualized using confocal microscopy. Adherens junctions are represented by histograms of VE-cadherin as indicated by dotted lines and were quantitatively analyzed using peak fluorescence intensities of the histograms at the single-cell level for 10 randomly selected cells per experiment.
(A-C) HRECs were preincubated with 50 μM cystamine (Cys) and 20 μM MDC for 30 min and treated with 10 ng/ml VEGF. Stress fibers and VE-cadherin were stained and visualized by confocal microscopy as described in Research Design and Methods (n=3) ((A) Representative images of stress fibers. Scale Bar, 30 μm. (B) Representative images of VE-cadherin. Scale Bar, 10 μm). Adherens junctions are represented by histograms of VE-cadherin as indicated by dotted lines. (C) Adherens junctions were quantitatively analyzed using the peak fluorescence intensities of the histograms at the single-cell level. The results are expressed as mean±SD from three independent trials. (D) In-vitro endothelial cell monolayer permeability assay. HRECs on inserts of Transwell® Permeable Supports were incubated with 50 μM cystamine and 20 μM MDC for 30 min and treated with 10 ng/mL VEGF for 90 min. The amount of FITC-dextran that diffused to the lower chamber was measured by a microplate spectrofluorometer (n=3) (**p<0.01).
HRECs were transfected with 100 nM human TGase2-specific siRNA (TGase2 siRNA) or 100 nM control (Ctrl) siRNA. Endothelial cells were treated with 10 ng/ml VEGF and subjected to the confocal microscopic visualization of stress fibers (A) and VE-cadherin (B), as described in Research Design and Methods (n=3). (A) TGase2 siRNA inhibition of VEGF-induced formation of stress fibers. Scale bar, 30 μm. (B) Representative images of VE-cadherin and adherens junctions represented by VE-cadherin histograms. Scale bar, 10 μm. (C) Adherens junctions were quantitatively analyzed using peak fluorescence intensities of the histograms at the single-cell level. Results are expressed as mean±SD from three independent experiments (***p<0.001).

TGase = biological target: T2, TGase (Homo sapiens, UniProt P21980); test: VEGF-induced TGase activation in HUVECs; format: cell-based
T2 construct: endogenous in cells; host or cells: HUVECs (isolated in house)
T2 sequence (P21980 1-687): T1 sequence (P21980 1-687)
Protocol: (§1) Both respectively were grown on 2% gelatin-coated plates in a M199 medium supplemented with 20% fetal bovine serum (FBS), 3 ng/ml basic fibroblastic growth factor, 5 units/ml heparin, 100 units/ml penicillin, and 100 μg/ml streptomycin. For experiments, cells were incubated for 6 hrs in a low-serum medium supplemented with 1% FBS and antibiotics.
In-situ Tgase transamidating activity was determined via confocal microscopic assay according to a previously known procedure. In brief, cells were incubated with 1 mM 5-(biotinamido)pentylamine (BAPA) for 1 hr at 37° C., fixed with 3.7% formaldehyde in PBS for 30 min, and permeabilized with 0.2% Triton X-100 in PBS for 30 min. After incubation with a blocking solution of 2% BSA in 20 mM Tris (pH 7.6), 138 mM NaCl, and 0.1% Tween 20 for 30 min, cells were treated with Cy3-conjugated streptavidin (1:200, v/v) in the blocking solution for 1 hr. Single-cell fluorescence intensities of stained cells were determined using confocal microscopy for 10 randomly selected cells per test. TGase activities were determined by comparing average fluorescence intensities of treated cells with those of control cells (expressed as multiples thereof).

HUVECs = test: VEGF-induced ROS generation in HUVECs; format: cell-based, human
Protocol: as §1
Intracellular ROS generation was determined using 2′,7′-dichlorodihydrofluorescein diacetate (H2DCFDA, Molecular Probes, Eugene, Oreg.) staining as previously described. Cells were pretreated with inhibitors for 30 min and co-incubated with 10 ng/ml of VEGF and 10 μM H2DCFDA in low-serum media (phenol red-free) for 10 min. Labeled cells were immediately analyzed using confocal microscopy (Fluoview-300, Olympus). Single-cell fluorescence intensities were determined for 10 randomly selected cells per test. Intracellular ROS levels were determined by comparing average fluorescence intensities of treated cells with those of control cells (expressed as multiples thereof).

HRECs = test: In-vitro endothelial cell monolayer permeability assay (FITC-dextran, Transwell); format: cell-based, human; conditions: 50 μM cystamine, 20 μM MDC or 100 nM dasatinib 30 min, 10 ng/ml VEGF 90 min, p<0.01
Protocol: In-vitro permeability assay was performed as previously described. HRECs were grown on gelatin-coated inserts (0.4 μm polycarbonate membrane) of Transwell® Permeable Supports (Costar, Corning, N.Y., USA) up to confluence. Approximately 1.0×10^5 cells in 0.5 ml of culture medium were seeded on the upper side of the membrane while 1 ml of culture medium was added to the lower compartment. […] The amount of FITC-dextran that diffused through the endothelial monolayer into the lower chamber was measured using a microplate spectrofluorometer (Molecular Devices, Sunnyvale, Calif., USA).
(A-C) HRECs were preincubated with 50 μM cystamine (Cys) and 20 μM MDC for 30 min and treated with 10 ng/ml VEGF. […] (C) Adherens junctions were quantitatively analyzed using the peak fluorescence intensities of the histograms at the single-cell level. The results are expressed as mean±SD from three independent trials. […] The amount of FITC-dextran that diffused to the lower chamber was measured by a microplate spectrofluorometer (n=3) (**p<0.01).
(A) β-catenin was visualized by confocal microscopy. […] (B) cSrc phosphorylation at Tyr^416 was analyzed by Western blot. […] Results are expressed as mean±SD from three independent experiments (**p<0.01, ***p<0.001).

c-Src = c-Src phosphorylation (Tyr416) by Western blot in HRECs; format: cell-based, human; conditions: 50 μM cystamine or 100 nM dasatinib 30 min, 10 ng/ml VEGF 15 min
Protocol: Cells were incubated with an ice-cold lysis buffer containing 50 mM Tris-HCl (pH 7.5), 1% Triton X-100, 150 mM NaCl, 1 mM EDTA, 0.1 mM phenylmethylsulfonyl fluoride (PMSF), 10 μg/ml aprotinin, and 10 μg/ml leupeptin for 30 min. Cell lysates were separated by SDS-PAGE and transferred to polyvinylidene fluoride membranes. The membranes were blocked with 5% skim milk in TBS with 0.1% Tween for 1 hr at room temperature (RT). […] Protein bands were visualized using a chemiluminescent substrate (Pierce, Rockford, Ill.).

β-catenin = test: Visualization of β-catenin in HRECs; format: cell-based, human; conditions: 50 μM cystamine or 100 nM dasatinib 30 min, 10 ng/ml VEGF 90 min
Protocol: For visualization of β-catenin, cells were preincubated with inhibitors for 30 min and treated with 10 ng/ml VEGF for 90 min, fixed with 3.7% formaldehyde, and permeabilized with 0.2% Triton X-100. Cells were incubated overnight with a monoclonal anti-3-catenin antibody (1:200, Santa Cruz Biotechnology) at 4° C. Cells were then probed with an FITC-conjugated goat anti-mouse antibody (1:200, Sigma) and visualized using confocal microscopy. Images for making galleries were cropped to a smaller size using Microsoft PowerPoint 2010 software.
(A) β-catenin was visualized by confocal microscopy. Scale bar, 30 μm. (B) cSrc phosphorylation at Tyr^416 was analyzed by Western blot. (C) In-vitro endothelial cell monolayer permeability assay. Results are expressed as mean±SD from three independent experiments (**p<0.01, ***p<0.001).

TGase2 activity (TGase2)	VEGF-enhanced TGase activation (TGase)	SMILES	VEGF-induced VE-cadherin disruption (VE-cadherin)	VEGF-enhanced ROS generation (HUVECs)	VEGF-increased in-vitro endothelial permeability (HRECs)	VEGF-induced VE-cadherin breakdown (VE-cadherin)	VEGF-induced c-Src phosphorylation (Tyr416) (c-Src)	VEGF-induced β-catenin breakdown (β-catenin)
inhibited	inhibited	NCCS [cysteamine]	prevented	inhibited				
		CN(C)c1cccc2c(S(=O)(=O)NCCCCCN)cccc12 [MDC, monodansylcadaverine]			inhibited	inhibited		
		NCCSSCCN [cystamine]			inhibited	inhibited	prevented	inhibited
inhibited	inhibited	NCCc1ccc(O)c(O)c1 [dopamine]	prevented	inhibited				
